Experimental findings from patent US20170283440A1, “CARM1 INHIBITORS AND USES THEREOF” (Epizyme, Inc., priority 2014, published 2017) are described below.

Test [1] has as its system asymmetric di-methyl PABP1 in RKO cells. Description: RKO methylation assay (In Cell Western for asymmetric di-methyl PABP1). The settings on record: Homo sapiens, 48 hours incubation, read-out: Cellular IC50. The format is cell-based. The gist of the method: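 RKO cells treated 48 h at 37 °C, then fixed, methanol-permeabilized and probed for asymmetric di-methyl PABP1 (16 h, 4 °C) with DRAQ5 counterstain; 800/700 nm intensity ratio read.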

Test [2] concerns the target T1, Human CARM1 (PRMT4) (Homo sapiens, UniProt Q86X55).
T1 construct: Flag-CARM1-His was eluted with 200 ug/ml FLAG peptide in buffer A; made in house; host or cells: HEK 293F cells infected with recombinant baculovirus (pFastBacMam)
Description: CARM1 enzyme assay on peptide substrate (3H-SAM Flashplate). The format is biochemical. Conditions: CARM1 0.25 nM, 3H-SAM 30 nM, peptide 250 nM; read-out: Biochem IC50. An excerpt: S-adenosylmethionine (SAM), S-adenosylhomocysteine (SAH), bicine, Tween20, dimethylsulfoxide (DMSO), bovine skin gelatin (BSG), sodium butyrate and Tris(2-carboxyethyl)phosphine hydrochloride solution (TCEP) were purchased from Sigma-Aldrich at the highest level of purity possible. ^3H-SAM was purchase from American Radiolabeled Chemicals with a specific activity of 80 Ci/mmol. 384-well streptavidin Flashplates were purchased from PerkinElmer.
Peptide representative of human histone H3 residues 16-30 was synthesized with an N-terminal linker-affinity tag motif and a C-terminal amide cap by 21st Century Biochemicals. The peptide was purified by high-performance liquid chromatography (HPLC) to greater than 95% purity and confirmed by liquid chromatography mass spectrometry (LC-MS). The sequence was Biot-Ahx-[…]-amide and contained a monomethylated arginine at position 26 (SEQ ID NO.:1).
Human CARM1 (PRMT4) (NM_199141.1) transcript clone was amplified from an HEK 293 cDNA library, incorporating a flanking 5′ sequence encoding a FLAG tag ([…]) (SEQ ID NO.:2) fused directly to Ala 2 of CARM1 and 3′ sequence encoding a hexa His sequence ([…]) (SEQ ID NO.:3) fused directly to Ser 608. The gene sequence encoding isoform1 containing a deletion of amino acids 539-561 was amplified subsequently and subcloned into pFastBacMam (Viva Biotech).
Recombinant baculovirus were generated according to Bac-to-Bac kit instructions (Life Technologies). Protein over-expression was accomplished by infecting exponentially growing HEK 293F cell culture at 1.3×10^6 cell/ml with virus (MOI=10) in the presence of 8 mM sodium butyrate. Infections were carried out at 37° C. for 48 hours, harvested by centrifugation, and stored at −80° C. for purification.
Column was washed with 500 mM NaCl in buffer A and Flag-CARM1-His was eluted with 200 ug/ml FLAG peptide in buffer A. Pooled fractions were dialyzed in 20 mM Tris, 150 mM NaCl, 5% glycerol and 1 mM DTT, pH 7.8. The purity of recovered protein was 94.
The assays were all performed in a buffer consisting of 20 mM Bicine (pH=7.6), 1 mM TCEP, 0.005% BSG, and 0.002% Tween 20, prepared on the day of use. Compounds in 100% DMSO (1 ul) were spotted into a polypropylene 384-well V-bottom plates (Greiner) using a Platemate Plus outfitted with a 384-channel head (Thermo Scientific). DMSO (1 ul) was added to Columns 11, 12, 23, 24, rows A-H for the maximum signal control and 1 ul of SAH, a known product and inhibitor of CARM1, was added to columns 11, 12, 23, 24, rows I—P for the minimum signal control. A cocktail (40 ul) containing the CARM1 enzyme was added by Multidrop Combi (Thermo-Fisher). The compounds were allowed to incubate with CARM1 for 30 min at room temperature, then a cocktail (10 ul) containing ^3H-SAM and peptide was added to initiate the reaction (final volume=51 ul). The final concentrations of the components were as follows: CARM1 was 0.25 nM, ^3H-SAM was 30 nM, peptide was 250 nM, SAH in the minimum signal control wells was 1 mM, and the DMSO concentration was 2%. The assays were stopped by the addition of non-radiolabeled SAM (10 ul) to a final concentration of 300 uM, which dilutes the ^3H-SAM to a level where its incorporation into the peptide substrate is no longer detectable. 50 ul of the reaction in the 384-well polypropylene plate was then transferred to a 384-well Flashplate and the biotinylated peptides were allowed to bind to the streptavidin surface for at least 1 hour before being washed once with 0.1% Tween20 in a Biotek ELx405 plate washer. The plates were then read in a PerkinElmer TopCount plate reader to measure the quantity of ^3H-labeled peptide bound to the Flashplate surface, measured as disintegrations per minute (dpm) or alternatively, referred to as counts per minute (cpm).
where dpm=disintegrations per minute, cmpd=signal in assay well, and min and max are the respective minimum and maximum signal controls. […]

Some results are limits rather than exact numbers.

T1 sequence (Q86X55 other isoform, or with tags, fused parts or gaps): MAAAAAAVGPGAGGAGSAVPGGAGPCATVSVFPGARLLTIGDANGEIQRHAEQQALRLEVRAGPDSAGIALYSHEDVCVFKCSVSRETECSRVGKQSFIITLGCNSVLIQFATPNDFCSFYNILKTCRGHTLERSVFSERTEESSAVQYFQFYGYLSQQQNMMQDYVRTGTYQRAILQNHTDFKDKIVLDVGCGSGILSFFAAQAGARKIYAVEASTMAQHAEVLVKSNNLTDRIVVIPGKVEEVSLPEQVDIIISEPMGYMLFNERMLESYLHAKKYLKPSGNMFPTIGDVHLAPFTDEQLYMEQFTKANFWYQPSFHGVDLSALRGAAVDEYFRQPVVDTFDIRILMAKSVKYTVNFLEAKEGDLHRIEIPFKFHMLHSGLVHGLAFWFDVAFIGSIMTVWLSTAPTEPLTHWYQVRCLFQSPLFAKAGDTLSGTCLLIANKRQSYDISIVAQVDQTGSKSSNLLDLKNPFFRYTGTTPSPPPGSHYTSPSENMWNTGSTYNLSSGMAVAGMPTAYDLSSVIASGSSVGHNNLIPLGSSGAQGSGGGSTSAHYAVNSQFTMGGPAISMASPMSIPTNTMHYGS

On to `CNCC(O)COc1cccc(-c2nc(NCc3cnn(C)c3)c3cnn(C(C)(C)C)c3n2)c1` (stereo not drawn) [Example 8-8], for which the IC50 in test [1] is above 20 µM; in test [2], below 0.1 µM.
Take `CNCC(O)COc1cccc(-c2nc(NCc3nccs3)c3cnn(C4CC4)c3n2)c1` (stereo not drawn) [Example 8-9]: the 50% inhibitory concentration (IC50) in test [1] was 10 to 20 µM; in test [2], 0.1 to 1 µM.
As to `CNCC(O)COc1cc(Cl)cc(-c2cc(NC3CCOC3)c3cnn(C(C)C)c3n2)c1` (stereo not drawn) [Example 9-4], the IC50 in test [1] was above 20 µM; in test [2], below 0.1 µM.
Consider `CC(C)(C)n1ncc2c(N3CCOCC3)nc(-c3cccc(OCC(O)CN)c3)nc21` (stereo not drawn) [Example 9-5], for which the results for the IC50 in test [1] and in test [2] were above 20 µM and below 0.1 µM, respectively.
Consider `CNC[C@H](O)COc1cccc(-c2cc(N3CCOCC3)n3ncc(C(C)C)c3n2)c1` [Example 9-6], for which the values for the IC50 in test [1] and in test [2] were above 20 µM and below 0.1 µM, respectively.
The matching figures for `CC(C)c1cnn2c(N3CCOCC3)cc(-c3cccc(OC[C@@H](O)CN)c3)nc12` [Example 9-8]: above 20 µM and below 0.1 µM.
Taken in the same sequence, the figures for `CNCC(O)COc1cc(Cl)cc(-c2cc(N(C)C3CCOCC3)n3ncc(C(C)(C)C)c3n2)c1` (stereo not drawn) [Example 9-9] were above 20 µM and 0.1 to 1 µM.
The matching figures for `CNCC(O)COc1cc(OC)cc(-c2cc(Nc3cncnc3)c3cnn(C(C)C)c3n2)c1` (stereo not drawn) [Example 10-4]: above 20 µM and below 0.1 µM.
Take `CNCC(O)COc1cccc(-c2nc(NC3CCOC3)c3cnn(C(C)C)c3n2)c1` (stereo not drawn) [Example 10-5]: the IC50 in test [1] was 10 to 20 µM; in test [2] it was below 0.1 µM.
On to `CNCC(O)COc1cccc(-c2cc(N[C@H]3CCOC3)n3ncc(C(C)C)c3n2)c1` (stereo partly drawn) [Example 10-6], for which the IC50 in test [1] is above 20 µM; in test [2] it was below 0.1 µM.
As for `CC(C)c1cnn2c(N3CCOCC3)cc(-c3cccc(OC[C@H](O)CN)c3)nc12` [Example 10-8], the IC50 is above 20 µM in test [1] and below 0.1 µM in test [2].
The matching figures for `CN(c1cc(-c2cccc(OCC(O)CN)c2)nc2c(C(C)(C)C)cnn12)C1CCOCC1` (stereo not drawn) [Example 10-9]: above 20 µM and 0.1 to 1 µM.
As to `CNCC(O)COc1cc(C#N)cc(-c2cc(NC3CCOCC3)c3cnn(C(C)C)c3n2)c1` (stereo not drawn) [Example 11-4], the IC50 in test [1] is above 20 µM; in test [2] it was 0.1 to 1 µM.
Consider `NCC(O)COc1cccc(-c2nc(NCc3cccnc3)c3cnn(C4CC4)c3n2)c1` (stereo not drawn) [Example 11-5], for which the half-inhibitory concentration (IC50) in test [1] is above 20 µM; in test [2], 0.1 to 1 µM.
Consider `CNCC(O)COc1cccc(-c2cc(N[C@@H]3CCOC3)n3ncc(C(C)C)c3n2)c1` (stereo partly drawn) [Example 11-6], for which the IC50 in test [1] is above 20 µM; in test [2], below 0.1 µM.
With `CC(C)c1cnn2c(N(C)C3CCOCC3)cc(-c3cccc(OCC(O)CN)c3)nc12` (stereo not drawn) [Example 11-8], the IC50 in test [1] is above 20 µM; in test [2], 0.1 to 1 µM.
On to `CNCC(O)COc1cccc(-c2cc(NC(=O)NC)c3cnn(C(C)C)c3n2)c1` (stereo not drawn) [Example 11-9], for which the figures for the IC50 in test [1] and in test [2] were above 20 µM and 0.1 to 1 µM, respectively.
The matching figures for `CNCC(O)COc1cc(-c2cc(N3CCOCC3)c3cnn(C(C)C)c3n2)cc(C2CC2)c1` (stereo not drawn) [Example 12-4]: above 20 µM and 0.1 to 1 µM.
Take `NCC(O)COc1cccc(-c2nc(NCc3ccncc3)c3cnn(C4CC4)c3n2)c1` (stereo not drawn) [Example 12-5]: the IC50 was above 20 µM in test [1] and 0.1 to 1 µM in test [2].
In the case of `CNCC(O)COc1cccc(-c2cc(N(C)CCOC)n3ncc(C(C)C)c3n2)c1` (stereo not drawn) [Example 12-6], the IC50 was above 20 µM in test [1] and below 0.1 µM in test [2].
In the case of `CC(C)(C)c1cnn2c(NC3CCOCC3)cc(-c3cccc(OCC(O)CN)c3)nc12` (stereo not drawn) [Example 12-8], the figures for the IC50 in test [1] and in test [2] were above 20 µM and below 0.1 µM, respectively.
For the molecule `CNCC(O)COc1cc(Cl)cc(-c2cc(N3C[C@H]4CC[C@@H](C3)O4)n3ncc(C(C)C)c3n2)c1` (stereo partly drawn) [Example 12-9], the values for the IC50 in test [1] and in test [2] were above 20 µM and 0.1 to 1 µM, respectively.
`CNCC(O)COc1cc(NC)cc(-c2cc(NC3CCOCC3)c3cnn(C(C)C)c3n2)c1` (stereo not drawn) [Example 13-4]: the IC50 in test [1] was 10 to 20 µM; in test [2] it was below 0.1 µM.
In the case of `NCC(O)COc1cccc(-c2nc(NCc3ccccn3)c3cnn(C4CC4)c3n2)c1` (stereo not drawn) [Example 13-5], the IC50 was above 20 µM in test [1] and 0.1 to 1 µM in test [2].
The matching figures for `CNCC(O)COc1cccc(-c2cc(N(C)[C@@H]3CCOC3)n3ncc(C(C)C)c3n2)c1` (stereo partly drawn) [Example 13-6]: above 20 µM and below 0.1 µM.
For the molecule `COc1cc(OCC(O)CN)cc(-c2cc(N(C3CCOCC3)C3CC3)n3ncc(C(C)C)c3n2)c1` (stereo not drawn) [Example 13-8], the half-inhibitory concentration (IC50) in test [1] is above 20 µM; in test [2], 0.1 to 1 µM.
On to `CC(C)n1ncc2c(N3CCOCC3)cc(-c3cccc(CCC(O)CN)c3)nc21` (stereo not drawn) [Example 13-9], for which the half-maximal inhibitory concentration (IC50) in test [1] was above 20 µM; in test [2], 0.1 to 1 µM.
On to `CNCC(O)COc1cc(OC)cc(-c2cc(NC3CCOCC3)c3cnn(C(C)C)c3n2)c1` (stereo not drawn) [Example 14-4], for which the IC50 in test [1] is above 20 µM; in test [2] it was below 0.1 µM.
As for `Cn1ccc(CNc2nc(-c3cccc(OCC(O)CN)c3)nc3c2cnn3C2CC2)n1` (stereo not drawn) [Example 14-5], the IC50 was above 20 µM in test [1] and 0.1 to 1 µM in test [2].
Taken in the same sequence, the figures for `CCN(c1cc(-c2cc(OC)cc(OCC(O)CN)c2)nc2c(C(C)C)cnn12)C1CCOCC1` (stereo not drawn) [Example 14-8] were above 20 µM and below 0.1 µM.
On to `CNCC(O)COc1cccc(-c2nc(NCc3cccc4ccnn34)c3cnn(C4CC4)c3n2)c1` (stereo not drawn) [Example 14-9], for which the IC50 in test [1] was above 20 µM; in test [2] it was 0.1 to 1 µM.
Regarding `Cc1cc(CNc2nc(-c3cccc(OCC(O)CN)c3)nc3c2cnn3C2CC2)no1` (stereo not drawn) [Example 15-5], the IC50 was above 20 µM in test [1] and 0.1 to 1 µM in test [2].
As to `C#Cc1cc(OCC(O)CNC)cc(-c2cc(N3CCOCC3)n3ncc(C(C)C)c3n2)c1` (stereo not drawn) [Example 15-6], the half-inhibitory concentration (IC50) in test [1] was above 20 µM; in test [2] it was below 0.1 µM.
On to `CC(C)(C)c1cnn2c(NC3CCOCC3)cc(-c3cc(Cl)cc(OCC(O)CN)c3)nc12` (stereo not drawn) [Example 15-8], for which the IC50 in test [1] is above 20 µM; in test [2] it was 0.1 to 1 µM.
Turning to `CNCC(O)COc1cc(-c2cc(NC3CCOCC3)c3cnn(C(C)C)c3n2)cc(C2CC2)c1` (stereo not drawn) [Example 16-4], the values for the IC50 in test [1] and in test [2] were above 20 µM and below 0.1 µM, respectively.
For `NCC(O)COc1cccc(-c2nc(N3CC4CCC(C3)O4)c3cnn(C4CC4)c3n2)c1` (stereo not drawn) [Example 16-5], the IC50 is above 20 µM in test [1] and below 0.1 µM in test [2].
With `CNCC(O)COc1cc(OC)cc(-c2cc(N3[C@@H]4CC[C@@H]3COC4)c3cnn(C(C)C)c3n2)c1` (stereo partly drawn) [Example 17-4], the IC50 in test [1] is 10 to 20 µM; in test [2] it was below 0.1 µM.
For the molecule `NCC(O)COc1cccc(-c2nc(N3C4CCC3COC4)c3cnn(C4CC4)c3n2)c1` (stereo not drawn) [Example 17-5], the IC50 is above 20 µM in test [1] and below 0.1 µM in test [2].
In the case of `C=Cc1cc(OCC(O)CNC)cc(-c2cc(N3CCOCC3)n3ncc(C(C)C)c3n2)c1` (stereo not drawn) [Example 17-6], the results for the IC50 in test [1] and in test [2] were above 20 µM and 0.1 to 1 µM, respectively.
